Legend:
granzyme B = biological target: T1, granzyme B (Homo sapiens, UniProt P10144); experiment: In vivo PET/CT imaging of ^18F-granzyme B tracers in Matrigel mouse model of active and pro-form granzyme B; set-up: species or system female nude athymic mice; conditions: nude athymic mice, i.v. radiotracer, static PET 75 minutes post-injection
T1 construct: In Vivo Imaging of ^18F-Granzyme B Tracers in a Matrigel Mouse Model of Active and Pro-Form Granzyme B; purchased Enzo Life Sciences; host or cells: purified from human lymphocytes
Method: Female nude athymic (5-6 weeks, 15-30 g) mice were purchased from Jackson Laboratories. Both granzyme B (Human lymphocytes, Enzo Life Sciences) and inactivated human pro-form granzyme B (R&D Systems) were also commercially purchased. […] Each granzyme B enzyme were then brought up to a final concentration of 0.05 μg/ul using phosphate buffered saline (GE, Hyclone). Matrigel (65 μl, Corning) was mixed with 15 μl of 0.75 μg of each granzyme B enzyme (granzyme B and pro-form granzyme B) within each Eppendorf tube. The mice were then anesthetized with 2.5-3% isoflurane mixed with oxygen. Approximately 60-80 μl of granzyme B/Matrigel or the pro-form granzyme B/Matrigel were then injected using a 28-gauge×0.5-inch insulin syringe (Terumo) to form implants on the right and left shoulder flanks of the mice. […] After the radiotracer injection, the catheter was removed and measured for any remaining residual radioactivity. […] PET signal in the granzyme B implants were quantified by manually drawing regions of interest (ROIs) over the Matrigel implants based on the fused PET/CT images and the corresponding activity values were determined with VivoQuant (Invicro, Massachusetts). […] Target to background ratios (TBR's) were then calculated by dividing the granzyme B % ID/g value by the pro-form granzyme B % ID/g value.

[1] = In vivo conversion of [^18F] granzyme B prodrugs to active form, radioactive metabolite screening of blood by radio-HPLC; set-up: species or system male CD-1 mice; conditions: for conversion to the active form: in vivo, mouse plasma 5 minutes after administration (FIGS. 4C, 5C); for 5 min (% active form in blood) / 15 min (% active form in blood): male CD-1 mice, tail vein injection, radio-HPLC; for 5 min (% active form in blood): blood 5 minutes post-injection; for 15 min (% active form in blood): blood 15 minutes post-injection
From the text: In vivo conversion of prodrugs was monitored by radioactive metabolite screening studies performed by injection of [^18F] granzyme B tracers in male CD-1 mice followed by analysis of extracted blood samples by radiometric HPLC. Results are reported as percent active form present in blood (Table 11).
Briefly, male CD-1 mice were anesthetized prior to dosing with approximately 250 μCi [^18F] granzyme B tracer via tail vein injection (n=3 mice/timepoint). For blood collection, mice were sacrificed following cardiac exsanguination with a syringe pre-rinsed with sodium heparin at 5 and 15 minutes post-injection and samples were prepared for analysis via radio-HPLC.
Blood samples were centrifuged at 1500 RCF for 5 minutes to allow for separation of plasma. Plasma samples were mixed with two volumes of methanol, vortexed for 30 seconds, and then centrifuged at 1500 RCF for 2 minutes. The supernatant was separated from the pellet and diluted 1:4 with PBS buffer pH 7.4 or water prior to analysis by HPLC.
Samples were then analyzed on an Agilent 1290 series UPLC UV coupled with a BGO coincidence detector. The HPLC method utilized 2) Phenomenex Monolithic C18 (100×4.6 mm); 100-200 μL injection volume; flow-rate: 1.2 mL/min; solvent for A: 20 mM ammonium acetate in water; solvent for B: 100% methanol; gradient: initial hold at 5% B hold for 1 min, 5% to 40% in 7 min, hold 40% B for 2 min, increase from 40% to 95% B in 1 min, hold 95% B for 2 min, and then return to 5% B to reequilibrate.

T1 sequence (P10144 21-247): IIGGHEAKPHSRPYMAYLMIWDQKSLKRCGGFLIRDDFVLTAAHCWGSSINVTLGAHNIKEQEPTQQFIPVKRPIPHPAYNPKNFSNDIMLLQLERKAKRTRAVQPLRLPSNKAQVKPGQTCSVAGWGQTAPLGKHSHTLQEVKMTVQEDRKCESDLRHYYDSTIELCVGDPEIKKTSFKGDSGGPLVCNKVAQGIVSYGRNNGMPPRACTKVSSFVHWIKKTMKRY

Row | SMILES | differentiation in Matrigel (granzyme B vs pro-form granzyme B implants) (granzyme B) | conversion to the active form [1] | 5 min (% active form in blood) [1] [%] | 15 min (% active form in blood) [1] [%]
1 | CC[C@H](C)[C@H](NC(=O)CCNC(=O)CCNC(=O)[C@@H](CCC(=O)O)NC(=O)CN1CCC(CN2CCN3CCN(CC2)CC(=O)[O][Al]([F])[O]C(=O)C3)CC1)C(=O)N[C@H]1CCc2cccc3c2N(C1=O)[C@H](C(=O)N[C@H]1CC(=O)O[C@@H]1OC)C3 [[^18F] 3-Al] | poor differentiation in Matrigel | slow conversion to the active form | 13 | 17
2 | CC[C@H](C)[C@H](NC(=O)CCNC(=O)CCNC(=O)CN(CC(=O)O)C(=O)CN1CCC(CN2CCN3CCN(CC2)CC(=O)[O][Al]([F])[O]C(=O)C3)CC1)C(=O)N[C@H]1CCc2cccc3c2N(C1=O)[C@H](C(=O)N[C@H]1CC(=O)O[C@H]1OC)C3 [[^18F] 9-Al] | – | – | 90 | 100
3 | CCO[C@@H]1OC(=O)C[C@@H]1NC(=O)[C@@H]1Cc2cccc3c2N1C(=O)[C@@H](NC(=O)[C@@H](NC(=O)COCCNC(=O)[C@@H](CCC(=O)O)NC(=O)[C@@H](CCC(=O)O)NC(=O)CN1CCC(CN2CCN4CCN(CC2)CC(=O)[O][Al]([F])[O]C(=O)C4)CC1)[C@@H](C)CC)CC3 [[^18F] 8-Al] | – | – | 86 | 100
4 | CC[C@H](C)[C@H](NC(=O)COCCNC(=O)[C@@H](CCC(=O)O)NC(=O)[C@@H](CCC(=O)O)NC(=O)CN1CCC(CN2CCN3CCN(CC2)CC(=O)[O][Al]([F])[O]C(=O)C3)CC1)C(=O)N[C@H]1CCc2cccc3c2N(C1=O)[C@H](C(=O)N[C@H]1CC(=O)O[C@H]1OC)C3 [[^18F] 7-Al] | – | – | 69 | 78
5 | CC[C@H](C)[C@H](NC(=O)COCCNC(=O)[C@@H](CCC(=O)O)NC(=O)[C@@H](CCC(=O)O)NC(=O)CN1CCC(CN2CCN3CCN(CC2)CC(=O)[O][Al]([F])[O]C(=O)C3)CC1)C(=O)N[C@H]1CCc2cccc3c2N(C1=O)[C@H](C(=O)N[C@H]1CC(=O)O[C@@H]1OC)C3 [[^18F] 6-Al] | – | – | 11 | 16
6 | CCO[C@@H]1OC(=O)C[C@@H]1NC(=O)[C@@H]1Cc2cccc3c2N1C(=O)[C@@H](NC(=O)[C@@H](NC(=O)CCNC(=O)CCNC(=O)[C@@H](CCC(=O)O)NC(=O)CN1CCC(CN2CCN4CCN(CC2)CC(=O)[O][Al]([F])[O]C(=O)C4)CC1)[C@@H](C)CC)CC3 [[^18F] 5-Al] | – | – | 98 | 100
7 | CC[C@H](C)[C@H](NC(=O)CCNC(=O)CCNC(=O)[C@@H](CCC(=O)O)NC(=O)CN1CCC(CN2CCN3CCN(CC2)CC(=O)[O][Al]([F])[O]C(=O)C3)CC1)C(=O)N[C@H]1CCc2cccc3c2N(C1=O)[C@H](C(=O)N[C@H]1CC(=O)O[C@H]1OC)C3 [[^18F] 4-Al] | good differentiation in Matrigel | rapid conversion to the active form | 92 | 94

From patent US20260256962A1, “PRODRUGS FOR COMPOUNDS SPECIFIC TO GRANZYME B AND USES THEREOF” (CYTOSITE BIOPHARMA INC., priority 2021, published 2026)
